This is an account of results in PubChem BioAssay AID180 (DTP/NCI, 2004).

The term T/C denotes the ratio of treated to control.

Molecules are shown by their SMILES. Several values for one entry are separate records, joined by “and”; a condition that tells them apart may be missing. Equal entries are not always repeated.

The subject of the assay is BDF1 mice, Adenocarcinoma 755 s.c., tumor weight T/C. The experiment in a line: NCI In Vivo Anticancer Drug Screen. Data for tumor model Adenocarcinoma 755 (subcutaneous) in B6D2F1 (BDF1) mice. The settings on record: endpoint: mean tumor weight, higher = larger tumour. The method, boiled down:
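Compound activity was tested in mice carrying transplanted tumors. Survival or tumor size was measured, and each value is the treated-group measurement divided by that of the vehicle-treated control group (T/C).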

Setting [1] is: dose: 75.0 mg/kg/injection, schedule: Q01DX011 (ip), vehicle: methylcellulose (MC).
Where [2] appears, read: dose: 25.0 mg/kg/injection, schedule: Q01DX011 (ip), vehicle: carboxymethylcellulose (CMC).

For the molecule `C[C@@H]1C[C@H]2CC[C@H](O2)[C@H](C)C(=O)O[C@@H](C)C[C@@H]2CC[C@@H](O2)[C@@H](C)C(=O)O[C@H](C)C[C@H]2CC[C@H](O2)[C@H](C)C(=O)O[C@@H](C)C[C@@H]2CC[C@@H](O2)[C@@H](C)C(=O)O1`, the T/C (dose: 2.5 mg/kg/injection, schedule: Q01DX011 (ip), vehicle: olive oil, sesame oil, peanut oil) was 116 % of control; the T/C (dose: 5.0 mg/kg/injection, schedule: Q01DX011 (ip), vehicle: olive oil, sesame oil, peanut oil) was 85 % of control; the T/C (dose: 10.0 mg/kg/injection, schedule: Q01DX011 (ip), vehicle: olive oil, sesame oil, peanut oil) is 96 % of control; the T/C (dose: 10.0 mg/kg/injection, schedule: Q01DX011 (sc), vehicle: olive oil, sesame oil, peanut oil) was 118 % of control; the T/C (dose: 18.0 mg/kg/injection, schedule: Q01DX011 (ip), vehicle: carboxymethylcellulose (CMC)) was 116 % of control; the T/C (dose: 19.0 mg/kg/injection, schedule: Q01DX011 (ip), vehicle: methylcellulose (MC)) was 89 % of control. Further, the T/C runs as follows: (dose: 19.0 mg/kg/injection, schedule: Q01DX011 (sc), vehicle: methylcellulose (MC)) 246 % of control; (dose: 20.0 mg/kg/injection, schedule: Q01DX011 (ip), vehicle: olive oil, sesame oil, peanut oil) 48 % of control; (dose: 20.0 mg/kg/injection, schedule: Q01DX011 (sc), vehicle: olive oil, sesame oil, peanut oil) 73 % of control; (dose: 30.0 mg/kg/injection, schedule: Q01DX011 (sc), vehicle: olive oil, sesame oil, peanut oil) 87 % of control; (dose: 36.0 mg/kg/injection, schedule: Q01DX011 (ip), vehicle: carboxymethylcellulose (CMC)) 98 % of control; (dose: 37.5 mg/kg/injection, schedule: Q01DX011 (sc), vehicle: methylcellulose (MC)) 159 % of control. Besides, the T/C runs as follows: (dose: 40.0 mg/kg/injection, schedule: Q01DX011 (ip), vehicle: carboxymethylcellulose (CMC)) 87 % of control; (dose: 50.0 mg/kg/injection, schedule: Q01DX011 (ip), vehicle: carboxymethylcellulose (CMC)) 92 % of control; (dose: 60.0 mg/kg/injection, schedule: Q01DX011 (ip), vehicle: carboxymethylcellulose (CMC)) 89 % of control; (dose: 60.0 mg/kg/injection, schedule: Q01DX011 (sc), vehicle: olive oil, sesame oil, peanut oil) 57 % of control; under setting [1], 91 % of control; (dose: 150.0 mg/kg/injection, schedule: Q01DX011 (sc), vehicle: methylcellulose (MC)) 211 % of control.
For the molecule `O=C(CCCl)N1CCN(C(=O)CCCl)CC1`, the T/C reads like this: (dose: 11.25 mg/kg/injection, schedule: Q01DX011 (ip), vehicle: methylcellulose (MC)) 64 % of control; (dose: 22.5 mg/kg/injection, schedule: Q01DX011 (ip), vehicle: methylcellulose (MC)) 66 % of control; (dose: 44.0 mg/kg/injection, schedule: Q01DX011 (ip), vehicle: saline) 86 % of control; (dose: 45.0 mg/kg/injection, schedule: Q01DX011 (ip), vehicle: methylcellulose (MC)) 80 % of control; (dose: 87.5 mg/kg/injection, schedule: Q01DX011 (ip), vehicle: saline) 63 % of control; (dose: 90.0 mg/kg/injection, schedule: Q01DX011 (ip), vehicle: methylcellulose (MC)) 56 % of control. Also, the T/C was 26 % of control and 33 % of control and 50 % of control (dose: 175.0 mg/kg/injection, schedule: Q01DX011 (ip), vehicle: methylcellulose (MC)); 70 % of control (dose: 175.0 mg/kg/injection, schedule: Q01DX011 (ip), vehicle: saline); 40 % of control (dose: 263.0 mg/kg/injection, schedule: Q01DX011 (ip), vehicle: saline).
As for `O=NN(CCCl)C(=O)NCCCl`, the T/C is 63 % of control and 66 % of control and 75 % of control (dose: 0.45 mg/kg/injection, schedule: Q01DX011 (ip), vehicle: carboxymethylcellulose (CMC)); 90 % of control and 98 % of control and 86 % of control (dose: 0.9 mg/kg/injection, schedule: Q01DX011 (ip), vehicle: carboxymethylcellulose (CMC)); 93 % of control and 99 % of control (dose: 1.62 mg/kg/injection, schedule: Q01DX011 (ip), vehicle: saline); 47 % of control (dose: 1.75 mg/kg/injection, schedule: Q01DX011 (ip), vehicle: carboxymethylcellulose (CMC)); 79 % of control and 84 % of control (dose: 3.25 mg/kg/injection, schedule: Q01DX011 (ip), vehicle: saline); 36 % of control and 40 % of control (2×) (dose: 3.5 mg/kg/injection, schedule: Q01DX011 (ip), vehicle: carboxymethylcellulose (CMC)). Further, the T/C was 32 % of control and 34 % of control (dose: 6.5 mg/kg/injection, schedule: Q01DX011 (ip), vehicle: carboxymethylcellulose (CMC)); 59 % of control and 78 % of control (dose: 6.5 mg/kg/injection, schedule: Q01DX011 (ip), vehicle: saline); 18 % of control (2×) and 40 % of control (dose: 7.0 mg/kg/injection, schedule: Q01DX011 (ip), vehicle: carboxymethylcellulose (CMC)); 13 % of control (dose: 13.0 mg/kg/injection, schedule: Q01DX011 (ip), vehicle: carboxymethylcellulose (CMC)).
As to `Cn1cnc(N)c(NC=O)c1=O`, the T/C runs as follows: under setting [2], 98 % of control; (dose: 75.0 mg/kg/injection, schedule: Q01DX011 (ip), vehicle: carboxymethylcellulose (CMC)) 113 % of control; (dose: 225.0 mg/kg/injection, schedule: Q01DX011 (ip), vehicle: carboxymethylcellulose (CMC)) 115 % of control.
As to `Cn1c(=O)c2c(nc(N(CCO)CCO)n2C)n(C)c1=O`, the T/C (dose: 480.0 mg/kg/injection, schedule: Q01DX011 (ip), vehicle: saline) was 112 % of control.
`CCCNc1ncnc2c1cnn2C1CCCO1` (stereo unspecified): the T/C was 75 % of control (dose: 1.5 mg/kg/injection, schedule: Q01DX011 (ip), vehicle: methylcellulose (MC)); 66 % of control (dose: 3.1 mg/kg/injection, schedule: Q01DX011 (ip), vehicle: methylcellulose (MC)); 27 % of control (dose: 6.2 mg/kg/injection, schedule: Q01DX011 (ip), vehicle: methylcellulose (MC)); 3 % of control and 4 % of control (dose: 12.5 mg/kg/injection, schedule: Q01DX011 (ip), vehicle: methylcellulose (MC)).
Regarding `Cc1ccc(N(O)C(=O)Nc2ccccc2)cc1`, the T/C (dose: 100.0 mg/kg/injection, schedule: Q01DX011 (ip), vehicle: methylcellulose (MC)) is 95 % of control and the T/C (dose: 200.0 mg/kg/injection, schedule: Q01DX011 (ip), vehicle: methylcellulose (MC)) was 80 % of control.
For the molecule `Cc1nc(Cl)c(C#N)c(C(F)(F)F)c1[N+](=O)[O-]`, where the note is “dose: 30.0 mg/kg/injection, schedule: Q01DX011 (ip), vehicle: carboxymethylcellulose (CMC)”, the T/C was 59 % of control.
As for `Cc1ccc(S(=O)(=O)NCCCCC(Nc2ncnc3nc[nH]c23)C(=O)O)cc1` (stereo unspecified), the T/C is 81 % of control (dose: 25.0 mg/kg/injection, schedule: Q01DX011 (ip), vehicle: saline); 21 % of control (dose: 75.0 mg/kg/injection, schedule: Q01DX011 (ip), vehicle: saline); 4 % of control (dose: 225.0 mg/kg/injection, schedule: Q01DX011 (ip), vehicle: saline).
`CC(=O)Nc1c(Cl)c(Cl)c2c(c1Cl)Cc1cc(Br)ccc1-2`: the T/C is 30 % of control (dose: 12.0 mg/kg/injection, schedule: Q01DX011 (ip), vehicle: carboxymethylcellulose (CMC)) and 41 % of control under setting [2].
In the case of `Cn1c(=O)c2c(nc(COCc3nc4c(c(=O)n(C)c(=O)n4C)n3C)n2C)n(C)c1=O`, the T/C (dose: 25.0 mg/kg/injection, schedule: Q01DX011 (ip), vehicle: methylcellulose (MC)) is 60 % of control; the T/C under setting [1] was 82 % of control; the T/C (dose: 225.0 mg/kg/injection, schedule: Q01DX011 (ip), vehicle: methylcellulose (MC)) was 33 % of control.
As to `CC(=O)NCC(=O)O`, the T/C runs as follows: (dose: 100.0 mg/kg/injection, schedule: Q01DX011 (ip), vehicle: other) 106 % of control; (dose: 200.0 mg/kg/injection, schedule: Q01DX011 (ip), vehicle: other) 74 % of control; (dose: 800.0 mg/kg/injection, schedule: Q01DX011 (ip), vehicle: other) 87 % of control.
Regarding `NC(=O)N(CCCl)N=O`, the T/C is 54 % of control and 59 % of control (dose: 0.23 mg/kg/injection, schedule: Q01DX011 (ip), vehicle: methylcellulose (MC)); 34 % of control and 38 % of control (dose: 0.9 mg/kg/injection, schedule: Q01DX011 (ip), vehicle: methylcellulose (MC)); 27 % of control (dose: 1.8 mg/kg/injection, schedule: Q01DX011 (ip), vehicle: methylcellulose (MC)).
For `Cn1c(=O)c2c(ncn2CC(=O)O)n(C)c1=O`, the T/C reads like this: (dose: 63.0 mg/kg/injection, schedule: Q01DX011 (ip), vehicle: methylcellulose (MC)) 106 % of control; (dose: 125.0 mg/kg/injection, schedule: Q01DX011 (ip), vehicle: methylcellulose (MC)) 89 % of control; (dose: 250.0 mg/kg/injection, schedule: Q01DX011 (ip), vehicle: methylcellulose (MC)) 112 % of control; (dose: 500.0 mg/kg/injection, schedule: Q01DX011 (ip), vehicle: methylcellulose (MC)) 117 % of control.
